Several values for one entry are separate records, joined by “and”; a condition that tells them apart may be missing. Equal values may be shown once.
Experiments:
[1] = Metabolite profile in plasma, liver and HT29 tumor after i.p. SN30000; assay type: in vivo, NIH-III mice; conditions: SN30000 186 mg/kg i.p.; for Metabolite/SN30000 peak area, Tumor: HT29 tumor
Procedure: Mouse plasma and tissue homogenates, prepared from tissue samples in two volumes of ice-cold PBS using a TissueLyser II (Qiagen Sciences, Germantown, MD, United States) with 30 Hz oscillation frequency for 1 min, were processed by precipitating proteins with 3 vol MeOH and centrifuging (13,000 g, 4°C for 10 min). Supernatants were diluted into 3 vol water and analyzed with an Agilent model 6460 LC-MS/MS with an in-line photodiode array absorbance detector. Chromatographic separation was performed on a Zorbax Eclipse C18 column (100 mm × 3.0 mm, 1.8 μm; Agilent Technologies) at 35°C with a flow rate of 0.6 mL/min, with positive or negative mode electrospray ionization. The mobile phase was a gradient constructed using 80% MeCN/20% water/0.1% formic acid v/v/v (A) and 0.1% formic acid in water (B) from 10% A to 80% A with a total run time of […]. The gradient profile was: 0–4 min, 10% A; 4–11 min linear increase to 60% A; 11–12 min to 80% A; held for 1 min, returned to 10% A over 0.5 min and held for 2 min before the next sample injection. Absorbance spectra were collected from 230 to 600 nm with a reference wavelength of 550 nm. The mass/charge (m/z) ratio was scanned from 100 to 800 with a fragmentor voltage of 120 V. MS^2 with various collision energies was used for further characterization of some metabolites.
Metabolites were investigated in plasma, liver and HT29 tumors following i.p. dosing of female NIH-III mice with SN30000 at 186 mg/kg, which represents its previously determined MTD for this route and mouse strain ([Gu et al., 2014]). Representative chromatograms are shown in Supplementary Figure 1. A total of 19 metabolites (M1–M19) were provisionally identified (Figure 1 and Table 1). Assignments were confirmed by comparison with synthetic standards in the case of the 1-oxide M14 and nor-oxide M13, which have previously been reported as murine metabolites of SN30000 ([Wang et al., 2012]) and for M15 which is known to be the major photodegradation product of SN30000 ([Gu et al., 2014]). In addition, the previously unreported metabolite M18, which is the main plasma metabolite at late times, was isolated from pooled plasma of mice dosed with M14 in sufficient quantity for characterization by NMR (Supplementary Data). This identified M18 as an oxidation product of M14 with an alkanoic acid side-chain (Figure 1), an assignment that was confirmed by synthesis of the authentic compound which was identical by HPLC retention time, absorbance spectrum, elemental analysis, mass spectrum and NMR spectroscopy.

in vivo [2] = conditions: NIH-III nude, mouse, iv
Procedure: SN30000, M14 and M18 dosing solutions were prepared fresh in normal saline, filtered through 0.45 μm Acrodisc filters (Pall Life Sciences, Port Washington, NY, United States), protected from light in amber vials, and used within 3 h. Doses are expressed as mg of free base equivalent for SN30000 and M14, and free acid in the case of M18. […] Blood samples were collected from mice at various times by cardiac puncture, seconds after cervical dislocation, into ice-cold tubes containing K2EDTA. These were placed on ice immediately after collection and centrifuged (3,000 g, 3 min) within 10 min to harvest plasma. Plasma and tissues were rapidly frozen in liquid nitrogen before storage at -80°C for subsequent bioanalysis.
M18 was quantified by absorbance detection with reference to an external standard calibration curve.
Concentration-time data were analyzed by non-compartmental analysis using Phoenix WinNonlin (ver 6.4, Build 6.4.0768 Pharsight, United States); all AUC values were extrapolated to infinity using the linear trapezoidal rule. […] Model fits were further assessed by visual inspection of the residuals and predicted PK.

in vivo [3] = conditions: NIH-III, mouse, ip
Procedure: SN30000, M14 and M18 dosing solutions were prepared fresh in normal saline, filtered through 0.45 μm Acrodisc filters (Pall Life Sciences, Port Washington, NY, United States), protected from light in amber vials, and used within 3 h. Doses are expressed as mg of free base equivalent for SN30000 and M14, and free acid in the case of M18. […] For evaluation of acute toxicity, mice were observed continuously for 3 h after dosing, and their activity rated on a lethargy score from 0 representing no change in activity to 5 representing animals that were moribund and required culling. For MTD studies, the animals were checked daily for clinical signs of toxicity and body weight change for 2 weeks. In some studies rectal temperature changes after dosing were measured using a BAT-12 digital microprobe thermometer (Physitemp Instruments, Clifton, NJ, United States) at the times specified in the figures. Blood samples were collected from mice at various times by cardiac puncture, seconds after cervical dislocation, into ice-cold tubes containing K2EDTA. These were placed on ice immediately after collection and centrifuged (3,000 g, 3 min) within 10 min to harvest plasma. Plasma and tissues were rapidly frozen in liquid nitrogen before storage at -80°C for subsequent bioanalysis.
Concentration-time data were analyzed by non-compartmental analysis using Phoenix WinNonlin (ver 6.4, Build 6.4.0768 Pharsight, United States); all AUC values were extrapolated to infinity using the linear trapezoidal rule. A compartmental model for plasma PK after dosing with SN30000 or M14 was fitted using Phoenix NLME v1.3 with random effects on the metabolite volumes of distribution, and temperature effects based on the observed body temperature at the last measurement time. Temperature effects were added or removed until there was no significant change in the log likelihood. Model fits were further assessed by visual inspection of the residuals and predicted PK.

NIH-III mice = assay: Core body (rectal) temperature and acute clinical signs after dosing; assay type: in vivo; conditions: i.p. SN30000 186 mg/kg, TPZ 31.7 mg/kg, M14 135 mg/kg
Procedure: Supplementary Figure 3. Initial rates of core temperature decrease in (untreated) NIH-III mice post- mortem: co mparison with initial temperature change ante- mortem following treatment with benzotriazine oxides at their MTD. Temperature was measured in rectu m and liver over 15 min. Initial rates of temperature loss (°C/min) were: post- mortem (rectum):
(rectum) 0.33. The rectal temperature loss following dosing with M14 (135 mg/kg) was 0.6 °C/min (not shown for clarity). The drug-induced changes are redrawn from Fig. 4.

[4] = molecular target: T1, mouse brain acetylcholinesterase (Mus musculus, UniProt P21836); assay: biochemical; conditions: mouse brain homogenate, 37°C
T1 construct: from tissue; host or cells: mouse brain homogenate
T1 sequence (P21836 32-614): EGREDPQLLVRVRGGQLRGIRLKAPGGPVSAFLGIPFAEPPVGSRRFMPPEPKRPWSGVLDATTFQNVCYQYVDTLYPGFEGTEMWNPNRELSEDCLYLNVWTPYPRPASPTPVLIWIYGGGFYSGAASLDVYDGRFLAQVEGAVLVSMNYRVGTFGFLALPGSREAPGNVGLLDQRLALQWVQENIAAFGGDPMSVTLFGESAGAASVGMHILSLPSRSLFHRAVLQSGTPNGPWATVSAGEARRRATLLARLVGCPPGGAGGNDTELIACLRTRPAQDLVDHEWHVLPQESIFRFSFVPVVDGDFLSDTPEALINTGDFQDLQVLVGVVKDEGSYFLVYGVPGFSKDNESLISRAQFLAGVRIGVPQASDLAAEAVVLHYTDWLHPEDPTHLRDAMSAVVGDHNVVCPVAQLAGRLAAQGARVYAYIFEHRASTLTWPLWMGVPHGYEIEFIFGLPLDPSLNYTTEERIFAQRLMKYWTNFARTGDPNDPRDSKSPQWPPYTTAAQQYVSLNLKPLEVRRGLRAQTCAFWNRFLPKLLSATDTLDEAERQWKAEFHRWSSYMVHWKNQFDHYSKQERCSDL
Procedure: TABLE 10: Inhibition of mouse brain acetylcholinesterase activitya by SN30000 and related compounds […]
aThe acetylcholinesterase inhibition assay is based on Obregon et al., 2005. Mouse brain homogenate was prepared in potassium phosphate buffer (100 mM, pH 7.4), which was pre-incubated with dithiobisnitrobenzoate (final concentration 1 mM) at 37°C for 10 min. After adding acetylthiocholine (final concentration 0.6 mM), the formation of 5-thio-2-nitrobenzoate was measured by monitoring absorbance (Spectramax- M2 spectrophotometer) at 412 nm every 30 s for 10 min. Negative controls (DMSO or saline) and positive control […]
IC50 values are based on 3-4 deter minations per compound.

What does the source list for `c1c2c(cc3nc(CCCN4CCOCC4)nnc13)CCC2` [M13]?
Metabolite/SN30000 peak area, Tumor [1]: 0.11; Metabolite/SN30000 peak area, Liver [1]: 1.50; Metabolite/SN30000 peak area, Plasma [1]: 0.08; AUC (in vivo [2]; plasma, 1.86 mg/kg): 0.0047 µM·h; half-life (in vivo [2]; plasma, 1.86 mg/kg): 27.7 min; AUC (in vivo [2]; plasma, 18.6 mg/kg): 0.146 µM·h; half-life (in vivo [2]; plasma, 18.6 mg/kg): 47.1 min; AUC (in vivo [2]; plasma, 78.3 mg/kg): 3.34 µM·h; half-life (in vivo [2]; plasma, 78.3 mg/kg): 38.9 min; AUC (in vivo [3]; plasma, 1.86 mg/kg): 0.0029 µM·h; Cmax (in vivo [3]; plasma, 1.86 mg/kg): 0.008 µM; half-life (in vivo [3]; plasma, 1.86 mg/kg): 19.8 min; AUC (in vivo [3]; plasma, 18.6 mg/kg): 0.079 µM·h; Cmax (in vivo [3]; plasma, 18.6 mg/kg): 0.202 µM; half-life (in vivo [3]; plasma, 18.6 mg/kg): 39.1 min; AUC (in vivo [3]; plasma, 78.3 mg/kg): 2.64 µM·h; Cmax (in vivo [3]; plasma, 78.3 mg/kg): 3.85 µM; half-life (in vivo [3]; plasma, 78.3 mg/kg): 31.8 min; AUC (in vivo [3]; plasma, 92.8 mg/kg): 5.43 µM·h; Cmax (in vivo [3]; plasma, 92.8 mg/kg): 6.63 µM; half-life (in vivo [3]; plasma, 92.8 mg/kg): 26.2 min; AUC (in vivo [3]; plasma, 186 mg/kg): 14.3 µM·h; half-life (in vivo [3]; plasma, 186 mg/kg): 53.3 min

Which “Metabolite/SN30000 peak area, Tumor” value [1] does the source give for `[O-][n+]1nc(CCCN2CCOCC2)nc2cc3c(cc21)CCC3` [M14] here?
Its value is 0.41.

And the “Metabolite/SN30000 peak area, Liver” value [1]?
The value was 5.18.

What about the “Metabolite/SN30000 peak area, Plasma” value [1] of the same compound?
Its value is 0.35.

What about the “Initial rate of temperature loss (rectum)” value (NIH-III mice) of the same compound?
Its value is 0.6 °C/min.

And the IC50 [4]?
The IC50 was 58.3 µM and 58 µM.

What about the AUC (in vivo [2]; in vivo, 1.86 mg/kg) of the same compound?
Its AUC is 0.042 µM·h.

And the half-life (in vivo [2]; in vivo, 1.86 mg/kg)?
Its half-life is 12.3 min.

What about the AUC (in vivo [2]; in vivo, 18.6 mg/kg) of the same compound?
The AUC was 0.6 µM·h.

And the half-life (in vivo [2]; in vivo, 18.6 mg/kg)?
Its half-life is 28.5 min.

And the AUC (in vivo [2]; in vivo, 78.3 mg/kg)?
Its AUC is 11.6 µM·h.

What about the half-life (in vivo [2]; in vivo, 78.3 mg/kg) of the same compound?
The half-life was 31.5 min.

What about the AUC (in vivo [3]; in vivo, 1.86 mg/kg) of the same compound?
Its AUC is 0.02 µM·h.

What about the Cmax (in vivo [3]; in vivo, 1.86 mg/kg) of the same compound?
Its Cmax is 0.053 µM.

What about the half-life (in vivo [3]; in vivo, 1.86 mg/kg) of the same compound?
Its half-life is 29.5 min.

What about the AUC (in vivo [3]; in vivo, 18.6 mg/kg) of the same compound?
Its AUC is 0.38 µM·h.

And the Cmax (in vivo [3]; in vivo, 18.6 mg/kg)?
The Cmax was 1.11 µM.

What about the half-life (in vivo [3]; in vivo, 18.6 mg/kg) of the same compound?
The half-life was 32.5 min.

And the AUC (in vivo [3]; in vivo, 78.3 mg/kg)?
Its AUC is 7.52 µM·h.

And the Cmax (in vivo [3]; in vivo, 78.3 mg/kg)?
The Cmax was 13.3 µM.

And the half-life (in vivo [3]; in vivo, 78.3 mg/kg)?
Its half-life is 20.1 min.

And the AUC (in vivo [3]; in vivo, 92.8 mg/kg)?
The AUC was 10.8 µM·h.

What about the Cmax (in vivo [3]; in vivo, 92.8 mg/kg) of the same compound?
Its Cmax is 16.8 µM.

And the half-life (in vivo [3]; in vivo, 92.8 mg/kg)?
The half-life was 22.9 min.

And the AUC (in vivo [3]; in vivo, 186 mg/kg)?
Its AUC is 24.6 µM·h.

And the Cmax (in vivo [3]; in vivo, 186 mg/kg)?
The Cmax was 23 µM.

What about the half-life (in vivo [3]; in vivo, 186 mg/kg) of the same compound?
Its half-life is 58.1 min.

Reference: paper PMC5554537 (Frontiers in Pharmacology, 2017)
